Legend:
[1] = for mass density / kinematic viscosity: 101.33 kPa, Liquid; for mass density: Vibrating tube method; for surface tension liquid-gas / kinematic viscosity: Surface laser light scattering (SLLS)
[2] = refractive index (Na D-line) (dimensionless); conditions: 101.33 kPa, Liquid, Standard Abbe refractometry

CCCCCC(=O)OC [methyl hexanoate]
Conditions	kinematic viscosity [m2/s]	mass density [kg/m3]	refractive index	surface tension liquid-gas [mN/m]
[1], 293.15 K	–	884.44	–	–
[1], 298.14 K	1.02e-06	–	–	24.58
[1], 303.15 K	–	874.79	–	–
[1], 313.15 K	–	865.12	–	–
[1], 323.15 K	–	855.4	–	–
[1], 323.17 K	7.49e-07	–	–	22.44
[1], 333.15 K	–	845.68	–	–
[1], 343.15 K	–	835.87	–	–
[1], 348.18 K	5.74e-07	–	–	20.35
[1], 353.15 K	–	825.97	–	–
[1], 363.15 K	–	815.95	–	–
[1], 373.15 K	–	805.49	–	–
[1], 373.21 K	4.53e-07	–	–	18.03
[1], 383.15 K	–	795.6	–	–
[1], 393.15 K	–	785.23	–	–
[1], 398.2 K	3.74e-07	–	–	15.63
[1], 403.15 K	–	774.67	–	–
[1], 413.15 K	–	763.86	–	–
[1], 423.17 K	3.25e-07	–	–	13.36
[1], 448.17 K	2.82e-07	–	–	11.18
[2], 278.15 K	–	–	1.41212	–
[2], 283.15 K	–	–	1.40984	–
[2], 288.15 K	–	–	1.40757	–
[2], 293.15 K	–	–	1.40529	–
[2], 298.15 K	–	–	1.403	–
[2], 303.15 K	–	–	1.4007	–
[2], 308.15 K	–	–	1.39841	–
[2], 313.15 K	–	–	1.3961	–
[2], 318.15 K	–	–	1.39373	–
[2], 323.15 K	–	–	1.39136	–
[2], 328.15 K	–	–	1.38902	–
[2], 333.15 K	–	–	1.38667	–
[2], 338.15 K	–	–	1.38432	–
[2], 343.15 K	–	–	1.38169	–
[2], 348.15 K	–	–	1.37961	–
[2], 353.15 K	–	–	1.37725	–
[2], 358.15 K	–	–	1.3749	–

CCCCCCCC(=O)OC [methyl octanoate]
Conditions	kinematic viscosity [m2/s]	mass density [kg/m3]	refractive index	surface tension liquid-gas [mN/m]
[1], 293.15 K	–	876.58	–	–
[1], 298.19 K	1.51e-06	–	–	24.65
[1], 303.15 K	–	866.75	–	–
[1], 313.15 K	–	858.95	–	–
[1], 323.15 K	–	850.13	–	–
[1], 323.21 K	1.09e-06	–	–	23.02
[1], 333.15 K	–	841.3	–	–
[1], 343.15 K	–	832.44	–	–
[1], 348.23 K	8.31e-07	–	–	21.61
[1], 353.15 K	–	823.54	–	–
[1], 363.15 K	–	814.59	–	–
[1], 373.15 K	–	805.56	–	–
[1], 373.28 K	6.5e-07	–	–	19.62
[1], 383.15 K	–	796.52	–	–
[1], 393.15 K	–	787.36	–	–
[1], 398.31 K	5.19e-07	–	–	17.62
[1], 403.15 K	–	778.1	–	–
[1], 413.15 K	–	768.72	–	–
[1], 423.15 K	–	759.27	–	–
[1], 423.31 K	4.3e-07	–	–	15.47
[1], 433.15 K	–	749.61	–	–
[1], 443.15 K	–	739.56	–	–
[1], 448.33 K	3.59e-07	–	–	13.44
[1], 453.15 K	–	729.82	–	–
[2], 278.15 K	–	–	1.42385	–
[2], 283.15 K	–	–	1.42168	–
[2], 288.15 K	–	–	1.41951	–
[2], 293.15 K	–	–	1.41734	–
[2], 298.15 K	–	–	1.41516	–
[2], 303.15 K	–	–	1.41298	–
[2], 308.15 K	–	–	1.41079	–
[2], 313.15 K	–	–	1.40854	–
[2], 318.15 K	–	–	1.40629	–
[2], 323.15 K	–	–	1.40405	–
[2], 328.15 K	–	–	1.40183	–
[2], 333.15 K	–	–	1.39965	–
[2], 338.15 K	–	–	1.3975	–
[2], 343.15 K	–	–	1.39535	–
[2], 348.15 K	–	–	1.3932	–
[2], 353.15 K	–	–	1.39104	–
[2], 358.15 K	–	–	1.38886	–

CCCCCCCCCCCCCC(=O)OC [methyl tetradecanoate]
Conditions	kinematic viscosity [m2/s]	mass density [kg/m3]	refractive index	surface tension liquid-gas [mN/m]
[1], 293.15 K	–	867.06	–	–
[1], 303.15 K	–	859.28	–	–
[1], 313.15 K	–	851.61	–	–
[1], 323.15 K	–	843.97	–	–
[1], 323.17 K	2.41e-06	–	–	23.37
[1], 333.15 K	–	836.37	–	–
[1], 343.15 K	–	828.8	–	–
[1], 348.16 K	1.76e-06	–	–	21.83
[1], 353.15 K	–	821.26	–	–
[1], 363.15 K	–	813.71	–	–
[1], 373.15 K	–	806.17	–	–
[1], 373.18 K	1.38e-06	–	–	20.78
[1], 383.15 K	–	798.64	–	–
[1], 393.15 K	–	791.09	–	–
[1], 398.2 K	1.08e-06	–	–	19.71
[1], 403.15 K	–	783.52	–	–
[1], 413.15 K	–	775.91	–	–
[1], 423.15 K	–	768.24	–	–
[1], 423.17 K	8.63e-07	–	–	18.31
[1], 433.15 K	–	760.61	–	–
[1], 443.15 K	–	752.95	–	–
[1], 448.17 K	7e-07	–	–	16.82
[1], 453.15 K	–	745.22	–	–
[2], 293.15 K	–	–	1.43704	–
[2], 298.15 K	–	–	1.43499	–
[2], 303.15 K	–	–	1.43296	–
[2], 308.15 K	–	–	1.43093	–
[2], 313.15 K	–	–	1.4289	–
[2], 318.15 K	–	–	1.42681	–
[2], 323.15 K	–	–	1.42472	–
[2], 328.15 K	–	–	1.42254	–
[2], 333.15 K	–	–	1.4202	–
[2], 338.15 K	–	–	1.41783	–
[2], 343.15 K	–	–	1.4163	–
[2], 348.15 K	–	–	1.41474	–
[2], 353.15 K	–	–	1.41282	–
[2], 358.15 K	–	–	1.41083	–

From the NIST ThermoML archive (doi:10.1016/j.jct.2019.02.025)
